# Assay results reported in patent US10501518B2 (priority 2013, dated 2019).
# How the values were obtained:
# [1] = biological target: T1, PTHR (Homo sapiens, UniProt Q03431); test: cAMP induction potency, N-terminal modifications and cyclic constraints (Tables 9, 10, 13); format: cell-based; conditions: Table 9
# T1 construct: expressed in transfected cells
# T1 sequence (Q03431 27-593): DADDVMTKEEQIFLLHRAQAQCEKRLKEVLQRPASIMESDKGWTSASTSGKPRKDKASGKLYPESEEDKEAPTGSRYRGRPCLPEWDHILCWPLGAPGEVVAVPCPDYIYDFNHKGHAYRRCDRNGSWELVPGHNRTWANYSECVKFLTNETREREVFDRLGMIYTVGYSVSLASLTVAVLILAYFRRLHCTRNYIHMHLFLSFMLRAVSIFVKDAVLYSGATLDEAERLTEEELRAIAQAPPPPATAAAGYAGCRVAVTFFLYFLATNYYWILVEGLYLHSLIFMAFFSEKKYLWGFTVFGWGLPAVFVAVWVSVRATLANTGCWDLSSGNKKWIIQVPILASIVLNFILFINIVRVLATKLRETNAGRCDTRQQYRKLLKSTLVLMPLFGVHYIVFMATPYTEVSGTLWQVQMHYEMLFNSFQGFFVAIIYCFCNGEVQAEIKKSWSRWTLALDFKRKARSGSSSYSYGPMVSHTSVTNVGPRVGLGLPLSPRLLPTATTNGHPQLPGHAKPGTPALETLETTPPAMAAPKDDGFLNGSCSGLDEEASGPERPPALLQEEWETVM
# Procedure: For cAMP dose-response assays, monolayers of confluent HEK 293 cells were pre-incubated with buffer containing d-luciferin (0.5 mM) in 96 well plates at room temperature until a stable baseline level of luminescence was established (30 min). Varying concentrations of agonist were then added, and the time course of luminescence response was recorded using a Perkin Elmer plate reader following α/β-peptide addition.
# [2] = biological target: T2, trypsin (Bos taurus, UniProt P00760); test: Protease stability (trypsin, HPLC assay); format: in vitro ADME, bovine; conditions: 40 μM peptide, 5 μg/mL trypsin, TBS, room temperature
# T2 construct: purchased Sigma Aldrich (St. Louis, Mo.); host or cells: bovine pancreas
# T2 sequence (P00760 24-246): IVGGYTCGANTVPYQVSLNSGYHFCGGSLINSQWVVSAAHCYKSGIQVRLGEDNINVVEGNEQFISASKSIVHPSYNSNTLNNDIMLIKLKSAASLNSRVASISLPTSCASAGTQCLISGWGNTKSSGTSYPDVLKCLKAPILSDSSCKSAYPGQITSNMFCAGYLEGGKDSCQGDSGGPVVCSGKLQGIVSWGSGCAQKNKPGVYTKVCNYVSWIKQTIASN
# Procedure: Locations of β^3 residues in B5 and D6 are indicated by highlighted residues. Solutions of 40 μM peptide in TBS were incubated at room temperature with 5 μg/mL trypsin. Vertical lines indicate observation by MALDI-MS of one or both products consistent with hydrolysis of the backbone amide bond between the noted residues. […] Each data point represents the average of measurements from duplicate experiments, with error bars corresponding to the standard deviation.
# An HPLC assay was used to assess proteolytic stability.^30, 32 Peptide concentration was determined by UV-Vis spectroscopy (calculated from the UV-vis absorption at 280 nm, ε280 nm=5,690 M^−1 cm^−1 for all peptides except D6 and D7, ε280 nm=11,380 M^−1 cm^−1 based on an extinction coefficient for the tryptophan sidechain chromophore of 5,690 M^−1 cm^−1).^33 Peptide stock solutions were prepared in degassed water to a concentration of 200 μM. […] A portion (75 μL) of the quenched reaction mixture was injected onto an analytical RP-HPLC (see peptide synthesis and purification section above), and peaks were analyzed. The time course of peptide degradation was experimentally determined by integrating the area of the peak corresponding to the non-hydrolyzed peptide in a series of HPLC traces, with duplicate proteolysis reactions being used to generate error bars corresponding to the standard deviation. […]
smiles,measurement,setting,value
CC[C@H](C)[C@H](NC(=O)[C@H](CCC(=O)O)NC(=O)[C@H](CO)NC(=O)[C@@H](NC(=O)[C@@H](N)CO)C(C)C)C(=O)N[C@@H](CCC(N)=O)C(=O)N[C@@H](CC(C)C)C(=O)N[C@@H](CCSC)C(=O)N[C@@H](Cc1cnc[nH]1)C(=O)N[C@@H](CC(N)=O)C(=O)N[C@@H](CC(C)C)C(=O)NCC(=O)N[C@@H](CCCCN)C(=O)N[C@H](CC(=O)N[C@@H](CC(C)C)C(=O)N[C@@H](CC(N)=O)C(=O)N[C@@H](CO)C(=O)N[C@@H](CCSC)CC(=O)N[C@@H](CCC(=O)O)C(=O)N[C@@H](CCCNC(=N)N)C(=O)N[C@H](C(=O)N[C@@H](CCC(=O)O)CC(=O)N[C@@H](Cc1c[nH]c2ccccc12)C(=O)N[C@@H](CC(C)C)C(=O)N[C@@H](CCCNC(=N)N)C(=O)N[C@@H](CCCCN)CC(=O)N[C@@H](CCCCN)C(=O)N[C@@H](CC(C)C)C(=O)N[C@@H](CCC(N)=O)C(=O)N[C@@H](CC(=O)O)CC(=O)N[C@H](C(=O)N[C@@H](Cc1cnc[nH]1)C(=O)N[C@@H](CC(N)=O)C(=O)N[C@H](CC(N)=O)Cc1ccccc1)C(C)C)C(C)C)Cc1c[nH]c2ccccc12 [D6],Fold PTH,[1],2.1
same,EC50,"[1]; read-out: EC50, nM (cAMP induction potency)",0.17 ± 0.05 nM
same,proteolysis by trypsin,[2],poorer substrate than is the α-peptide
"CC[C@H](C)[C@H](NC(=O)[C@H](CCC(=O)O)NC(=O)[C@H](CO)NC(=O)[C@@H](NC(=O)[C@@H](N)CO)C(C)C)C(=O)N[C@@H](CCC(N)=O)C(=O)N[C@@H](CC(C)C)C(=O)N[C@@H](CCSC)C(=O)N[C@@H](Cc1cnc[nH]1)C(=O)N[C@@H](CC(N)=O)C(=O)N[C@@H](CC(C)C)C(=O)NCC(=O)N[C@@H](CCCCN)C(=O)N[C@@H](Cc1cnc[nH]1)C(=O)N[C@@H](CC(C)C)C(=O)N[C@@H](CC(N)=O)C(=O)N[C@@H](CO)C(=O)N[C@@H](CCSC)C(=O)N[C@@H](CCC(=O)O)C(=O)N[C@@H](CCCN=C(N)N)C(=O)N[C@H](C(=O)N[C@@H](CCC(=O)O)C(=O)N[C@@H](Cc1c[nH]c2ccccc12)C(=O)N[C@@H](CC(C)C)C(=O)N[C@@H](CCCN=C(N)N)C(=O)N[C@@H](CCCCN)C(=O)N[C@@H](CCCCN)C(=O)N[C@@H](CC(C)C)C(=O)N[C@@H](CCC(N)=O)C(=O)N[C@@H](CC(=O)O)C(=O)N[C@H](C(=O)N[C@@H](Cc1cnc[nH]1)C(=O)N[C@@H](CC(N)=O)C(=O)N[C@@H](Cc1ccccc1)C(=O)O)C(C)C)C(C)C [PTH(1-34), reference compound]",proteolysis by trypsin,[2],Proteolysis was observed at all predicted trypsin cut sites
